# Results published in US12653865B2, “Dual-agonist compound for both GLP-1 and GIP receptors and application thereof” (Jiangsu Hengrui Pharmaceuticals Co., Ltd., priority 2020, dated 2026).
# *1 amine or outer side, *2 acyl side, *3 side chain or, on linkers, in order; H or OH if unused. Where a SMILES comes first, the peptide text is derived from it. Side-chain parts run from the residue outwards. [ ]: non-standard residue; d: D form. The star is where a group is joined. C20 diacid = O=C(O)CCCCCCCCCCCCCCCCCCC(=O)*; γGlu = O=C(O)[C@H](CCC(=O)[*:2])N[*:1]; AEEA = NCCOCCOCC(=O)O; Aib = CC(C)(N)C(=O)O
# Legend:
# normal mice = assay: Blood glucose in normal mice after single subcutaneous injection and intraperitoneal glucose; type: in vivo, C57BL/6 mice; conditions: 10 nmol/kg sc; for Blood glucose: glucose ip 18 h later
# Experimental: 18 h later, a glucose solution at a concentration of 0.2 g/mL was intraperitoneally injected. Blood glucose values were measured by collecting blood from the tail of mice at time points of 0 min, 15 min, 30 min, 60 min, and 120 min according to the experimental design. The specific procedures were as follows: the mouse was physically immobilized with the tail exposed, and a little was cut off the tail, then the tail was squeezed to bleed, and blood glucose was determined using a Roche active glucometer after the 1 st drop of blood was discarded. The area under the blood glucose curve (AUC) was calculated from the results of all points.
# diet-induced obese mice = assay: Body weight and fat mass in diet-induced obese mice; type: in vivo, C57BL/6 mice; conditions: induced obese mice, 10 nmol/kg sc
# Experimental: High-fat food-induced obese male C57BL/6 mice (weighing 35-55 g, aged 10-12 weeks, purchased from Shanghai Jiesijie Laboratory Animal Co., Ltd.) were tested. […] According to the experimental design, the body weight of each mouse was measured and recorded on day 0, day 3, day 6 and so on to day 27, the average body weight of each group of mice was calculated, and weight change curves were plotted by taking the body weight on the first day as the standard. At the end, the fat and other visceral organs of each part of the mice were taken out and weighed, and the viscera/brain ratio for fat in each part of each mouse was calculated. The effect of the drug on the fat was determined by comparing the change in the organ/brain ratio for fat of different parts of each group of mice.
# [1] = Stability in human plasma (LC-MS); type: in vitro ADME; conditions: 0 min (standard 100%)
# Experimental: 5 μL of each of samples at concentrations of 20 ng/mL, 50 ng/mL, 100 ng/mL, 200 ng/mL, 500 ng/mL, 1000 ng/mL, 2000 ng/mL, 5000 ng/mL and 10000 ng/mL was added to 45 μL of human plasma. The content of the compounds in the samples was determined by the LC-MS method and a standard curve was formed. 5 μL of a 1 mg/mL polypeptide solution was added to 45 μL of human plasma. […] With the content at 0 min as the standard (100%), the relative content of the retained compounds in the samples at other time points was calculated.
structure (smiles),measurement,setting,value
CC[C@H](C)[C@H](NC(=O)[C@H](CCCCN)NC(=O)[C@H](CC(=O)O)NC(=O)[C@H](CCCCNC(=O)COCCOCCNC(=O)COCCOCCNC(=O)CC[C@H](NC(=O)CCCCCCCCCCCCCCCCCCC(=O)O)C(=O)O)NC(=O)[C@H](Cc1ccc(O)cc1)NC(=O)[C@@H](NC(=O)[C@H](CO)NC(=O)[C@H](Cc1ccc(O)cc1)NC(=O)[C@H](CC(=O)O)NC(=O)[C@H](CO)NC(=O)[C@@H](NC(=O)[C@H](Cc1ccccc1)NC(=O)[C@@H](NC(=O)CNC(=O)[C@H](CCC(=O)O)NC(=O)C(C)(C)NC(=O)[C@@H](N)Cc1ccc(O)cc1)[C@@H](C)O)[C@@H](C)O)[C@@H](C)CC)C(=O)N[C@@H](C)C(=O)N[C@@H](C)C(=O)N[C@@H](CCC(N)=O)C(=O)N[C@@H](CCC(=O)O)C(=O)N[C@@H](Cc1ccccc1)C(=O)N[C@H](C(=O)N[C@@H](CC(N)=O)C(=O)N[C@@H](Cc1c[nH]c2ccccc12)C(=O)N[C@@H](CC(C)C)C(=O)N[C@@H](CC(C)C)C(=O)N[C@@H](C)C(=O)NCC(=O)NCC(=O)N1CCC[C@H]1C(=O)N[C@@H](CO)C(=O)N[C@@H](CO)C(=O)NCC(=O)N[C@@H](C)C(=O)N1CCC[C@H]1C(=O)N1CCC[C@H]1C(=O)N1CCC[C@H]1C(=O)N[C@@H](CO)C(N)=O)C(C)C [Compound 7#] (H-Y[Aib]EGTFTSDYSIYK([AEEA-AEEA-γGlu-C20 diacid])DKIAAQEFVNWLLAGGPSSGAPPPS-NH2),reduction of area under the blood glucose curve compared to placebo,normal mice,more than 60%
same,Blood glucose,normal mice; 0 min,4.4 ± 0.8 mmol/L
same,Blood glucose,normal mice; 15 min,6.7 ± 0.8 mmol/L
same,Blood glucose,normal mice; 30 min,6.2 ± 1.3 mmol/L
same,Blood glucose,normal mice; 60 min,5.7 ± 1.2 mmol/L
same,Blood glucose,normal mice; 120 min,3.8 ± 1.1 mmol/L
same,Changes in body weight,diet-induced obese mice; Day 1,0%
same,Changes in body weight,diet-induced obese mice; Day 4,−11.0%
same,Changes in body weight,diet-induced obese mice; Day 7,−17.6%
same,Changes in body weight,diet-induced obese mice; Day 10,−22.6%
same,Changes in body weight,diet-induced obese mice; Day 13,−22.3%
same,Changes in body weight,diet-induced obese mice; Day 16,−22.7%
same,Changes in body weight,diet-induced obese mice; Day 19,−25.9%
same,Changes in body weight,diet-induced obese mice; Day 22,−23.9%
same,Changes in body weight,diet-induced obese mice; Day 25,−23.9%
same,Changes in body weight,diet-induced obese mice; Day 28,−25.5%
same,relative content of compounds retained in plasma,[1],100.00%
